The results in this text go back to patent US20260218197A1, “EXTRACELLULAR VESICLE SECRETION REDUCING AGENT FOR REDUCING EXTRACELLULAR VESICLE SECRETION, AND USE OF THE SAME” (THEORIA SCIENCE INC., priority 2020, published 2026).

The structures appear in SMILES notation.

Common to all, as to assay type: cell-based, human
The subject of test [1] is colorectal cancer cells HCT116. The test can be described thus: Amount of secreted EVs by the NTA method. Conditions: HCT116, 2.5 μmol/L, 48 hours, serine-deficient medium, compared with NC (DMSO). As for the experimental part:
(§1) The cultured cancer cells were washed with phosphate buffered saline (PBS), and the medium was replaced with advanced RPMI or advanced DMEM containing the above-described antibiotic-antimycotic agent and 2 mmol/L L-glutamine (Gibco). The adjusted culture solution after the replacement was centrifuged at 2,000×g for 10 minutes to remove the cells, and the supernatant obtained was filtered through a 0.22 μm filter (Millipore). The resulting filtrate was centrifuged at 110,000×g for 70 minutes, whereby pellets containing concentrated EVs were obtained. The pellets were washed with 11 mL of PBS, further ultracentrifuged at 110,000×g for 70 minutes, and collected again.
(§2) The secreted EVs were collected and then suspended in PBS. […] An EV concentration was calculated as particles/cells in the culture solution, whereby a net EV secretion rate was obtained. […]
(§3) In a 6-well plate, 2 mL of the cancer cell suspension was seeded at 1.0×10^5 cells/well and incubated for 24 hours. […] 48 hours after the replacement, total RNA was extracted, and the expression of the gene of interest was measured by qPCR.
(§4) Colorectal cancer cells HCT116 and lung cancer cells A549 were each transfected with miR-891b. […] Then, according to the ExoScreen method described above, the amounts of the secreted EVs were measured by measuring the signal intensities. […]

For test [2], the system named is lung cancer cells A549. In words: Amount of secreted EVs by the NTA method. Conditions: A549, 2.5 μmol/L, 48 hours, serine-deficient medium, compared with NC (DMSO). The method, then:
as §1, §2, §3, §4

Test [3] relates to colorectal cancer cells HCT116. In words: CD63 immunofluorescence / coimmunostaining (intracellular EV accumulation). Conditions: HCT116, 2.5 μmol/L, 48 hours, serine-deficient medium, compared with NC (DMSO). The method, then: (§5) Colorectal cancer cells HCT116 and lung cancer cells A549 were transfected with siRNA (siPSAT1) in the same manner as in the item (2) in Example A1, and EV biogenesis after PSAT1 silencing was examined. For the respective silenced transformants, CD63 and PSAT1 were examined by immunofluorescence.
(§6) Further, coimmunostaining of the EV marker CD63 and also an early endosome marker EEA1 or a late endosome marker Rab7 was conducted for the PSAT1-silenced transformants. As a result, no overlap was observed between EEA1 and CD63 in either the PSAT1-silenced transformants or the negative control transformants. […] On this account, the CD63 single-positive area was measured based on the intensity. […] This confirmed that EVs had accumulated in the cells.
(§7) Specifically, the test was performed in the following manner. Colorectal cancer cells HCT116 and lung cancer cells A549 were each seeded in a 6-well plate at 1.5×10^5 cells/well (Day 0), and incubated for 24 hours in a medium (DMEM with 10% FBS, 1×anti-anti medium). After the incubation (Day 1), the above-described medium was removed, and thereafter, a serine-deficient medium and an inhibitor solution were added to the wells. The inhibitor solution was prepared by dissolving NCT-503 in DMSO, and the concentration of the inhibitor per well was set to 2.5 μmol/L. Then, after another 48 hours of incubation (Day 3), the medium in the wells was collected and the cells in the wells were counted. As negative controls (NC), the test was performed in the same manner, except that DMSO was added instead of the inhibitor solution.
(§8) EVs accumulated in the cells were analyzed in the following manner. Specifically, the collected cells were immunostained, the CD63 single-positive area was measured based on the fluorescence intensity, and the fluorescence intensity measured in the area was divided by the number of nuclei to determine the amount of EVs accumulated in each cell. On the other hand, secreted EVs were collected from the collected medium and then subjected to the NTA. In the NTA, the amount of secreted EVs was determined as a relative value calculated assuming that the amount of the secreted EVs in the negative control was 1.

The test system of test [4] is lung cancer cells A549. The description is as above. Conditions: A549, 2.5 μmol/L, 48 hours, serine-deficient medium, compared with NC (DMSO). As for the experimental part:
as §5, §6, §7, §8

Take `Cc1cc(C)nc(NC(=S)N2CCN(Cc3ccc(C(F)(F)F)cc3)CC2)c1` [NCT-503]: the “amount of EVs in the media (NTA, relative to negative control = 1)” value (in test [1]; in the test on lung cancer cells A549 [2]) was “smaller” in each case. For the same compound, the “amount of EVs accumulated in each cell (CD63 single-positive fluorescence intensity / number of nuclei)” value (in test [3]; in the test with lung cancer cells A549 [4]) was “larger” each time.
